# From patent publication US10376520B2, “Methods for the treatment of cardiovascular disorders” (Galapagos NV, priority 2015, dated 2019)
# How the values were obtained:
# [1] = tested on: Subjects With Active Crohn's Disease; experiment: Atherogenic index, Study 5 (Crohn's disease); assay type: in vivo, human; conditions: for Atherogenic index Mean CFB - 10 weeks results / Atherogenic index Mean percentage CFB - 10 weeks results / Atherogenic index Median CFB - 10 weeks results: 200 mg q.d.
# Text: As used herein, the term ‘atherogenic index’ refers to
# This is a double-blind, randomized, placebo-controlled, multi-centre Phase 2 study to investigate the efficacy and safety of Compound 1 administered once daily for the treatment of active CD with evidence of mucosal ulceration. The pharmacokinetics (including a PK substudy) and pharmacodynamics of Compound 1 and metabolite in CD will also be characterised.
# A total of 180 eligible subjects will be randomized to receive Compound 1 or placebo in addition to their stable background treatment (eg, corticosteroids, aminosalicylates, or CD-related antibiotics). The study will consist of 2 parts, with total treatment duration of 20 weeks. Randomization in Part 1 will be stratified according the subject's previous anti-TNF exposure/response, CRP level at Screening, and oral corticosteroid use at visit Day −1.
# After the first 10 weeks of treatment in Part 1, patients will be re-randomized for Part 2 as shown in the diagram below and will be stratified according to the subject's clinical response, previous anti-TNF exposure/response, and oral corticosteroid use at visit Day −1.
# The atherogenic index has been identified to be a good predictor of cardiovascular disorders risks and is calculated as follows: […]
# [2] = tested on: Japanese and Caucasian healthy subjects; experiment: [HDL] determination, Study 3 (healthy volunteers); assay type: in vivo, human; conditions: 200 mg q.d.
# Description: Randomized, double-blind, placebo-controlled study for the assessment of safety, tolerability, pharmacokinetics, and pharmacodynamics, of multiple oral doses of Compound 1 (dosed as a [Compound 1:HCl:3H2O]) in Japanese and Caucasian healthy subjects.
# Randomized, double-blind, placebo-controlled, single center, sequential design study.
# Compound 1 (dosed as a [Compound 1:HCl:3H2O]) is administered for 10 days as oral film-coated tablet (25 and 100 mg and matching placebos). Placebo are provided as a matching tablet.
# The study drug is ingested with 240 mL water after a standardized breakfast on Days 2-9. On PK days (Day 1 and Day 10) the study drug is administered in a fasted state (subjects will receive lunch 4 h after dosing on Day 1 and Day 10).
# 10 Japanese subjects (6 active, 4 placebo) and 10 Caucasian subjects (6 active, 4 placebo) will receive once daily an oral dose of 200 mg Compound 1 (dosed as a [Compound 1:HCl:3H2O]) or matching placebo as two tablets of 100 mg or matching placebo for 10 days. For practical reasons, these subjects may be split over separate groups, each group consisting of an equal number of Japanese and Caucasian Compound 1 (dosed as a [Compound 1:HCl:3H2O]) treated subjects and Japanese and Caucasian placebo subjects.
# This assay relies on a homogeneous enzymatic colorimetric test. In the presence of magnesium ions, dextran sulfate selectively forms water-soluble complexes with LDL, VLDL and chylomicrons which are resistant to PEG-modified enzymes.
# The cholesterol concentration of [HDL]-cholesterol is determined enzymatically by cholesterol esterase and cholesterol oxidase coupled with PEG to the amino groups (approx. 40%).
# In the presence of peroxidase, the hydrogen peroxide generated reacts with 4-amino-antipyrine and Sodium N-(2-hydroxy-3-sulfopropyl)-3,5-dimethoxyaniline (HSDA) to form a purple-blue dye. The color intensity of this dye is directly proportional to the cholesterol concentration and is measured photometrically.
# Human serum and plasma samples [HDL] determination was done on a Roche/Hitachi Cobas c 701/702 system which automatically calculate the analyte concentration of each sample. Samples containing precipitates are centrifuged before performing the assay.
# [3] = 200 mg q.d. week 0 to 10, to placebo week 10 to 20, week 4
# [4] = 200 mg q.d. week 0 to 10, to placebo week 10 to 20, week 6
# [5] = 200 mg q.d. week 0 to 10, to placebo week 10 to 20, week 10
# [6] = 200 mg q.d. week 0 to 10, to placebo week 10 to 20, week 12
# [7] = 200 mg q.d. week 0 to 10, to placebo week 10 to 20, week 16
# [8] = 200 mg q.d. week 0 to 10, to placebo week 10 to 20, week 20
# [9] = placebo week 0 to 10, to 100 mg q.d. week 10 to 20, week 12
# [10] = placebo week 0 to 10, to 100 mg q.d. week 10 to 20, week 16
# [11] = placebo week 0 to 10, to 100 mg q.d. week 10 to 20, week 20
smiles,measurement,setting,value
"O=C(Nc1nc2cccc(-c3ccc(CN4CCS(=O)(=O)CC4)cc3)n2n1)C1CC1 [Compound 1, cyclopropanecarboxylic acid {5-[4-(1,1-dioxo-thiomorpholin-4-ylmethyl)-phenyl]-[1,2,4]triazolo[1,5-a]pyridin-2yl}-amide]",Atherogenic index Median CFB - 20 weeks results,"[1]; 200 mg q.d. week 0 to 10, to placebo week 10 to 20, week 2",-0.31 mmol/L
same,Atherogenic index Mean percentage CFB - 20 weeks results,[1]; [3],−10.10%
same,Atherogenic index Median CFB - 20 weeks results,[1]; [3],-0.29 mmol/L
same,Atherogenic index Mean percentage CFB - 20 weeks results,[1]; [4],−2.55%
same,Atherogenic index Median CFB - 20 weeks results,[1]; [4],-0.14 mmol/L
same,Atherogenic index Mean percentage CFB - 20 weeks results,[1]; [5],−5.14%
same,Atherogenic index Median CFB - 20 weeks results,[1]; [5],-0.19 mmol/L
same,Atherogenic index Mean percentage CFB - 20 weeks results,[1]; [6],9.34%
same,Atherogenic index Median CFB - 20 weeks results,[1]; [6],0.14 mmol/L
same,Atherogenic index Mean percentage CFB - 20 weeks results,[1]; [7],19.14%
same,Atherogenic index Median CFB - 20 weeks results,[1]; [7],0.35 mmol/L
same,Atherogenic index Mean percentage CFB - 20 weeks results,[1]; [8],19.82%
same,Atherogenic index Median CFB - 20 weeks results,[1]; [8],0.38 mmol/L
same,Atherogenic index Mean CFB - 10 weeks results,[1]; week 2,-0.31 mmol/L
same,Atherogenic index Mean percentage CFB - 10 weeks results,[1]; week 2,−8.20%
same,Atherogenic index Median CFB - 10 weeks results,[1]; week 2,-0.31 mmol/L
same,Atherogenic index Mean CFB - 10 weeks results,[1]; week 4,-0.33 mmol/L
same,Atherogenic index Mean percentage CFB - 10 weeks results,[1]; week 4,−8.79%
same,Atherogenic index Median CFB - 10 weeks results,[1]; week 4,-0.28 mmol/L
same,Atherogenic index Mean CFB - 10 weeks results,[1]; week 6,-0.32 mmol/L
same,Atherogenic index Mean percentage CFB - 10 weeks results,[1]; week 6,−8.69%
same,Atherogenic index Median CFB - 10 weeks results,[1]; week 6,-0.29 mmol/L
same,Atherogenic index Mean CFB - 10 weeks results,[1]; week 10,-0.25 mmol/L
same,Atherogenic index Mean percentage CFB - 10 weeks results,[1]; week 10,−5.98%
same,Atherogenic index Median CFB - 10 weeks results,[1]; week 10,-0.21 mmol/L
same,Atherogenic index Mean percentage CFB - 20 weeks results,[1]; [9],0.84%
same,Atherogenic index Median CFB - 20 weeks results,[1]; [9],-0.10 mmol/L
same,Atherogenic index Mean percentage CFB - 20 weeks results,[1]; [10],−0.97%
same,Atherogenic index Median CFB - 20 weeks results,[1]; [10],-0.25 mmol/L
same,Atherogenic index Mean percentage CFB - 20 weeks results,[1]; [11],3.17%
same,Atherogenic index Median CFB - 20 weeks results,[1]; [11],-0.10 mmol/L
same,[HDL] % Mean % variation vs baseline 10 days,[2]; Caucasian,6%
same,[HDL] levels,"[2]; Caucasian, day 0",1.5 mmol/L
same,[HDL] levels,"[2]; Caucasian, day 5",1.5 mmol/L
same,[HDL] levels,"[2]; Caucasian, day 10",1.6 mmol/L
same,[HDL] levels,"[2]; Caucasian, day 17",1.6 mmol/L
same,[HDL] % Mean % variation vs baseline 10 days,[2]; Japanese,15.6%
same,[HDL] levels,"[2]; Japanese, day 0",1.3 mmol/L
same,[HDL] levels,"[2]; Japanese, day 5",1.3 mmol/L
same,[HDL] levels,"[2]; Japanese, day 10",1.5 mmol/L
same,[HDL] levels,"[2]; Japanese, day 17",1.4 mmol/L
